Results from patent US10233195B2, “Anti-fibrotic pyridinones” (InterMune, Inc., priority 2014, dated 2019).

Key:
[1] = test system: TGF-b induced Endothelin-1 production; experiment: ET-1 assay: inhibitory effect on TGF-b induced endothelin-1 production; assay type: cell-based; conditions: Homo sapiens, Fibroblast; fibroblasts, stimulant (TGFb, serum, LPA etc), ET-1 in media by ELISA, 4-parameter fit
Method in brief: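 Fibroblasts (primary human lung/dermal, HFL-1, 3T3) serum-starved 0-48 h, preincubated ~30 min with compound, then stimulated (TGFb, serum or LPA) for 16-48 h. Secreted ET-1 measured by ELISA; EC50 from 4-parameter logistic fit, with CC50 from ATPlite in the same wells.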

[2] = test system: Fibroblasts (primary human lung and dermal, HFL-1, 3T3 etc); experiment: Cell proliferation assay (BrdU incorporation); assay type: cell-based; conditions: HFL1, stimulant (LPA, TGFb, serum etc), 50% inhibition of the increase of BrdU incorporation
Description: Assay of Inhibitory Effect on Cell Proliferation (BrdU Incorporation)
Fibroblasts (primary human lung and dermal, HFL-1, 3T3 etc) were plated on a 96-well plate and serum starved for 24-48 hours. The media were then exchanged for media containing stimulants (LPA, TGFb, serum etc) and cultured further for 16-24 hours before BrdU addition. After culturing for another 8 hours, cells were washed with PBS and the amount of BrdU incorporated into the cells was assayed by absorbance at 450 nm using the Cell proliferation ELISA system (RPN250, Amersham LIFE SCIENCE). The difference between the amount of BrdU incorporated in the stimulant-added well and the amount of BrdU incorporated in the well containing no stimulant represented the amount of BrdU incorporation accelerated by stimulant. The increase of BrdU incorporation without the addition of test compounds was set as 100% and the concentration of compound with 50% inhibition in the increase of BrdU incorporation (IC50 value) was determined. The test compounds were added 0-30 min before stimulant addition.
Compounds of some embodiments were prepared according to synthetic methods described herein and assay data obtained for IC50 for BrdU inhibition. The assay data obtained is presented in Table 3, in which A=less than 50 μM, B=greater than or equal to 50 μM and less than or equal to 200 μM; and C=greater than 200 μM.

| Structure (SMILES) | EC50 [1] | IC50 [2] |
| --- | --- | --- |
| CC(=O)c1ccc(=O)n(-c2ccc(F)cc2)c1 [Compound 13] | > 200 µM | > 200 µM |
| COCCOCCOCCOc1ccc(-n2cc(C(C)=O)ccc2=O)cc1 [Compound 21] | > 200 µM | > 200 µM |
| O=c1ccc2c(n1-c1ccc(OC(F)(F)F)cc1)CCC2 [Compound 28] | 50 to 200 µM | 50 to 200 µM |
| Cc1cn(-c2ccccc2)c(=O)c2c1CCCC2 [Compound 29] | 50 to 200 µM | > 200 µM |
| Cn1cc(-c2cn(-c3ccccc3)c(=O)c3c2CCCC3)cn1 [Compound 31] | < 50 µM | 50 to 200 µM |
| Cn1cc(-c2cn(-c3ccc(OC(F)(F)F)cc3)c(=O)c3nsnc23)cn1 [Compound 41] |  | < 50 µM |
| Cn1cc(-c2cn(-c3ccc(OC(F)(F)F)cc3)c(=O)c3cccnc23)cn1 [Compound 43] | < 50 µM | > 200 µM |
| O=c1c2nccnc2c(-c2ccc(F)cc2)cn1-c1ccc(OC(F)(F)F)cc1 [Compound 46] | < 50 µM | < 50 µM |
| CCOc1ccc(Oc2cc(=O)n(-c3ccc(OC(F)(F)F)cc3)cc2-c2cnn(C)c2)cc1Cl [Compound 155] |  | < 50 µM |
| CCOc1ccc(-n2cc(-c3cn(C)nc3C(F)(F)F)c(C)cc2=O)c(C)c1 [Compound 239] |  | < 50 µM |
| CCOc1ccc(-n2cc(-c3cnn(C)c3)c(Cl)cc2=O)c(C)c1 [Compound 538] |  | 50 to 200 µM |
| CCOc1ccc(-n2cc(-c3ccc(F)cc3)c(OCCOC)cc2=O)c(C)c1 [Compound 551] |  | < 50 µM |
| CCn1c(=O)oc2cc(-c3c[nH]c(=O)cc3C)ccc21 [Compound 564] |  | < 50 µM |
| N#Cc1ccc(-n2cc(-c3cn[nH]c3)c3nccnc3c2=O)cc1 [Compound 573] | > 200 µM |  |
| O=c1c2nccnc2c(-c2cnn(CCO)c2)cn1-c1ccc(OC(F)(F)F)cc1 [Compound 577] | 50 to 200 µM |  |
| O=c1c2cccnc2c(-c2cn[nH]c2)cn1-c1ccc(OC(F)(F)F)cc1 [Compound 579] | > 200 µM |  |
| CCOc1ccc(-n2cc(-c3cn[nH]c3)c3ncccc3c2=O)c(C)c1 [Compound 580] | < 50 µM |  |
| N#Cc1ccc(-n2cc(-c3cn[nH]c3)c3ncccc3c2=O)cc1 [Compound 581] | > 200 µM |  |
| O=c1c2scnc2c(-c2cn[nH]c2)cn1-c1ccc(OC(F)(F)F)cc1 [Compound 582] | < 50 µM |  |
| Cc1nc2c(-c3cnn(Cc4ccccc4)c3)cn(-c3ccc(OC(F)(F)F)cc3)c(=O)c2s1 [Compound 586] | < 50 µM |  |
| Cc1nc2c(-c3cn[nH]c3)cn(-c3ccc(OC(F)(F)F)cc3)c(=O)c2s1 [Compound 587] | < 50 µM |  |
| CCn1ccc2c(-c3cn[nH]c3)cn(-c3ccc(OC(F)(F)F)cc3)c(=O)c21 [Compound 593] | < 50 µM |  |
| Cn1cc(-c2cn(-c3ccc(OC(F)(F)F)cc3)c(=O)c3c2ccn3Cc2ccccc2)cn1 [Compound 596] | < 50 µM |  |
| Cn1cc(-c2cn(-c3ccc(C#N)cc3)c(=O)c3c2ccn3C)cn1 [Compound 597] | > 200 µM |  |

| Structure (SMILES) | EC50 [1] | IC50 [2] |
| --- | --- | --- |
| Cn1ccc2c(-c3cn[nH]c3)cn(-c3ccc(Cl)cc3)c(=O)c21 [Compound 598] | < 50 µM |  |
| Cn1cc(-c2cn(-c3ccc(Cl)cc3)c(=O)c3c2ccn3C)cn1 [Compound 599] | < 50 µM |  |
| N#Cc1ccc(-n2cc(-c3cn[nH]c3)c3cc[nH]c3c2=O)cc1 [Compound 608] | 50 to 200 µM |  |
| CCn1ccc2c(-c3cnn(C)c3)c[nH]c(=O)c21 [Compound 611] | < 50 µM |  |
| Cn1cc(-c2c[nH]c(=O)c3[nH]ccc23)cn1 [Compound 612] | < 50 µM |  |
| Cn1cc(-c2cn(-c3ccc(OC(F)(F)F)cc3)c(=O)c3c2ccn3CCO)cn1 [Compound 614] | < 50 µM |  |
| CCn1nnc2c(=O)[nH]cc(-c3cnn(C)c3)c21 [Compound 622] | > 200 µM |  |
| Cn1cc(-c2c[nH]c(=O)c3[nH]nnc23)cn1 [Compound 623] | > 200 µM |  |
| Cc1cc(=O)n(-c2cccc(NC(N)=O)c2)cc1-c1cnn(C)c1 [Compound 628] | < 50 µM |  |
| CCn1nnc2c(-c3cn[nH]c3)cn(-c3ccc(OC(F)(F)F)cc3)c(=O)c21 [Compound 634] | < 50 µM |  |
| CCn1cnc2c(=O)n(-c3ccc(OC(F)(F)F)cc3)cc(-c3cn[nH]c3)c21 [Compound 640] |  | > 200 µM |
| CCn1ncc2c(-c3cnn(C)c3)cn(-c3ccc(OC(F)(F)F)cc3)c(=O)c21 [Compound 658] |  | > 200 µM |
| Cc1cc(=O)[nH]cc1-c1ccc2c(c1)N(C)C(=O)CO2 [Compound 662] |  | > 200 µM |
| Cn1cc(-c2cn(-c3ccc(OC(F)(F)F)cc3)c(=O)cc2NCc2cccnn2)cn1 [Compound 664] |  | < 50 µM |
| O=c1c(-c2ccc(F)cc2)c(-c2ccc(OC(F)(F)F)cc2)c1=O [Compound 666] | < 50 µM |  |
| CCOc1ccc(-c2c(-c3ccc(F)cc3)c(=O)c2=O)c(C)c1 [Compound 667] | < 50 µM |  |
| CCn1cnc2c(-c3cn[nH]c3)cn(-c3ccc(OC(F)(F)F)cc3)c(=O)c21 [Compound 669] | < 50 µM |  |
| CCn1cc(-c2cn(-c3ccc(OC(F)(F)F)cc3)c(=O)c3c2ncn3CC)cn1 [Compound 670] | < 50 µM |  |
| CCn1cnc2c(-c3cnn(C(C)C)c3)cn(-c3ccc(OC(F)(F)F)cc3)c(=O)c21 [Compound 671] | < 50 µM |  |
| O=c1c2[nH]cnc2c(-c2cn[nH]c2)cn1-c1ccc(OC(F)(F)F)cc1 [Compound 672] | < 50 µM |  |
| CC(C)n1cc(-c2cn(-c3ccc(OC(F)(F)F)cc3)c(=O)c3c2ncn3C)cn1 [Compound 673] | < 50 µM |  |
| Cc1nc2c(=O)n(-c3ccc(OC(F)(F)F)cc3)cc(-c3cnn(C)c3)c2n1C [Compound 674] | 50 to 200 µM |  |
| Cc1nc2c(=O)n(-c3ccc(OC(F)(F)F)cc3)cc(-c3cn[nH]c3)c2n1C [Compound 675] | < 50 µM |  |
| CC(C)n1nnc2c(-c3cnn(C)c3)cn(-c3ccc(OC(F)(F)F)cc3)c(=O)c21 [Compound 676] | < 50 µM |  |

| Structure (SMILES) | EC50 [1] | IC50 [2] |
| --- | --- | --- |
| O=c1c2[nH]nnc2c(-c2cn[nH]c2)cn1-c1ccc(OC(F)(F)F)cc1 [Compound 678] | 50 to 200 µM |  |
| Cn1cc(-c2cn(-c3ccc(OC(F)(F)F)cc3)c(=O)c3nn(CCF)nc23)cn1 [Compound 679] | < 50 µM |  |
| CCn1nc2c(-c3ccc(F)cc3)cn(-c3ccc(OC(F)(F)F)cc3)c(=O)c2n1 [Compound 680] | > 200 µM |  |
| Cn1cc(-c2cn(-c3ccc(OC(F)(F)F)cc3)c(=O)c3c2CCN3C(=O)OC(C)(C)C)cn1 [Compound 690] | < 50 µM |  |
| CCOCCn1ccc2c(-c3cn[nH]c3)cn(-c3ccc(OC(F)(F)F)cc3)c(=O)c21 [Compound 691] | < 50 µM |  |
| CC(C)OCCn1ccc2c(-c3cn[nH]c3)cn(-c3ccc(OC(F)(F)F)cc3)c(=O)c21 [Compound 692] | < 50 µM |  |
| CC(=O)N1CCc2c(-c3cnn(C)c3)cn(-c3ccc(OC(F)(F)F)cc3)c(=O)c21 [Compound 693] | 50 to 200 µM |  |
| CCn1ccc2c(=O)n(-c3ccc(OC(F)(F)F)cc3)cc(-c3cnn(C)c3)c21 [Compound 694] | < 50 µM |  |
| Cn1cc(-c2cn(-c3ccc(OC(F)(F)F)cc3)c(=O)c3cc[nH]c23)cn1 [Compound 695] | < 50 µM |  |
| CCOc1ccc(-n2cc(-c3cnn(C)c3)c(OCCOC(C)C)cc2=O)c(C)c1 [Compound 696] | 50 to 200 µM |  |
| CCOc1ccc(-n2cc(-c3cnn(C)c3)c(OCCOCCOC)cc2=O)c(C)c1 [Compound 697] | 50 to 200 µM |  |
| CCOc1ccc(-n2cc(-c3cnn(C)c3)c(OC3CCOCC3)cc2=O)c(C)c1 [Compound 698] | 50 to 200 µM |  |
| CCOc1ccc(-n2cc(-c3cnn(C)c3)c(NCc3ccccn3)cc2=O)c(C)c1 [Compound 699] | 50 to 200 µM |  |
| CCOc1ccc(-n2cc(-c3cnn(C)c3)c(NCc3ccncc3)cc2=O)c(C)c1 [Compound 700] | 50 to 200 µM |  |
| CCOc1ccc(-n2cc(-c3cnn(C)c3)c(NCc3cccnc3)cc2=O)c(C)c1 [Compound 701] | < 50 µM |  |
| CCOc1ccc(-n2cc(-c3cnn(C)c3)c(NCc3ccc(F)cc3F)cc2=O)c(C)c1 [Compound 702] | < 50 µM |  |
| CCOc1ccc(-n2cc(-c3cnn(C)c3)c(NCc3cc(F)cc(F)c3)cc2=O)c(C)c1 [Compound 703] | < 50 µM |  |
| CCOc1ccc(-n2cc(-c3cnn(C)c3)c(NCc3ccc(C#N)cc3)cc2=O)c(C)c1 [Compound 704] | < 50 µM |  |
| CCOc1ccc(-n2cc(-c3cnn(C)c3)c(N(C)Cc3ccccc3)cc2=O)c(C)c1 [Compound 705] | < 50 µM |  |
| CCOc1ccc(CNc2cc(=O)n(-c3ccc(OCC)cc3C)cc2-c2cnn(C)c2)c(C)c1 [Compound 706] | < 50 µM |  |
| CCOc1ccc(-n2cc(-c3cnn(C)c3)c(NCc3ccc(OCCOC)cc3)cc2=O)c(C)c1 [Compound 707] | < 50 µM |  |
| Cn1cc(-c2cc(=O)n(-c3ccc(OC(F)(F)F)cc3)cc2-c2cnn(C)c2)cn1 [Compound 708] | 50 to 200 µM |  |
| O=c1ccc(C(F)(F)F)cn1-c1ccc(NCCN2CCN(CCO)CC2)cc1Cl [Compound 709] | 50 to 200 µM |  |
| Cc1nc2ccn(-c3ccc(OC(F)(F)F)cc3)c(=O)c2s1 [compound 585] | > 200 µM |  |
